Holding throughout (type): functional
One test deals with T1, Leucine aminopeptidase (Plasmodium falciparum 3D7, UniProt Q8IL11).
T1 sequence (Q8IL11 whole entry): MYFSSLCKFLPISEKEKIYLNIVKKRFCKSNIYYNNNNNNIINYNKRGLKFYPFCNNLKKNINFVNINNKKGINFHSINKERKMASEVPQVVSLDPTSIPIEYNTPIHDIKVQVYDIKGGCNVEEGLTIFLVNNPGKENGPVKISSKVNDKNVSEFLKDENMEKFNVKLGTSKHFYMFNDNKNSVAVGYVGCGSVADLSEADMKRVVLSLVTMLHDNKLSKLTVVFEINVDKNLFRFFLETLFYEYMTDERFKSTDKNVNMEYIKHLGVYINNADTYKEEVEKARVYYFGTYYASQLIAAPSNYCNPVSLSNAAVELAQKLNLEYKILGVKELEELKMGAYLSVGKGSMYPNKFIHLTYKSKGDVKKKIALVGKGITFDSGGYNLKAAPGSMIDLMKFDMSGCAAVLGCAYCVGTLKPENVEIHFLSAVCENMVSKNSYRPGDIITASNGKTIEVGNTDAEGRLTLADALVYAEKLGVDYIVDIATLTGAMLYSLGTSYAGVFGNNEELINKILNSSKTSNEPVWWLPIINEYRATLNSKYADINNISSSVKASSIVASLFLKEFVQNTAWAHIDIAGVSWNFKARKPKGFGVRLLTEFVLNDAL
Description: P. falciparum M17LAP inhibitors, primary screen, biochemical, fluorogenic H-Leu-NHMec substrate, 1536-well (AID 1619).

The target of the next test is T2, Hexokinase-1 (Homo sapiens, UniProt P19367).
T2 sequence (P19367 whole entry): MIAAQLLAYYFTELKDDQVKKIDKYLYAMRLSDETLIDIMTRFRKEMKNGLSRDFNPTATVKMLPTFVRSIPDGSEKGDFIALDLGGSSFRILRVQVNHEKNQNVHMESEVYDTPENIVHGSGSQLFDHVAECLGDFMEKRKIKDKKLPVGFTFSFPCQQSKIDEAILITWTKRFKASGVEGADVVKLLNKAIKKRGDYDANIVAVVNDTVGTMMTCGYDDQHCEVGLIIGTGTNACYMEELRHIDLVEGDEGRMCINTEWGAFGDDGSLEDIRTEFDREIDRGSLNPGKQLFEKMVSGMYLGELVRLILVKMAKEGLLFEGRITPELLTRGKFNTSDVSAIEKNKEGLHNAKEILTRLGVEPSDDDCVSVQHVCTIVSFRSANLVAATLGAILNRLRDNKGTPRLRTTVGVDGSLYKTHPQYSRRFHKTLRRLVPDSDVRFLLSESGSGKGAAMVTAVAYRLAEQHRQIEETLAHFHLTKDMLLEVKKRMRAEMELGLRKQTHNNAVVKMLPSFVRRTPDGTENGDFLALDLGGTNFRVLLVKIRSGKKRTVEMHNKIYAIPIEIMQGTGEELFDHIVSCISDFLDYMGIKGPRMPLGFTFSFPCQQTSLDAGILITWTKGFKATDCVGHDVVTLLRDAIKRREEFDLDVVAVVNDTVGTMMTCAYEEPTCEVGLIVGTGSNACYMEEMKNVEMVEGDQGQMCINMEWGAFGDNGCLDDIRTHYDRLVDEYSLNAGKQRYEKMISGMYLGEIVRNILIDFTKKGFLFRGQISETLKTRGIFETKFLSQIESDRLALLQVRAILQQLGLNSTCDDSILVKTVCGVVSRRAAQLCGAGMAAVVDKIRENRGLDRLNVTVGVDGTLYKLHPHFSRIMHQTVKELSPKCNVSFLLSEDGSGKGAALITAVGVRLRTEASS
Description: HK1 enzyme inhibition by HKDC1 hits, SAR follow-up, selectivity assay for HKDC1 inhibitor project, biochemical, set 2, resazurin fluorescence coupled readout (AID 588356).

Test [1] concerns the target T3, Sentrin-specific protease 7 (Homo sapiens, UniProt Q9BQF6).
T3 sequence (Q9BQF6 whole entry): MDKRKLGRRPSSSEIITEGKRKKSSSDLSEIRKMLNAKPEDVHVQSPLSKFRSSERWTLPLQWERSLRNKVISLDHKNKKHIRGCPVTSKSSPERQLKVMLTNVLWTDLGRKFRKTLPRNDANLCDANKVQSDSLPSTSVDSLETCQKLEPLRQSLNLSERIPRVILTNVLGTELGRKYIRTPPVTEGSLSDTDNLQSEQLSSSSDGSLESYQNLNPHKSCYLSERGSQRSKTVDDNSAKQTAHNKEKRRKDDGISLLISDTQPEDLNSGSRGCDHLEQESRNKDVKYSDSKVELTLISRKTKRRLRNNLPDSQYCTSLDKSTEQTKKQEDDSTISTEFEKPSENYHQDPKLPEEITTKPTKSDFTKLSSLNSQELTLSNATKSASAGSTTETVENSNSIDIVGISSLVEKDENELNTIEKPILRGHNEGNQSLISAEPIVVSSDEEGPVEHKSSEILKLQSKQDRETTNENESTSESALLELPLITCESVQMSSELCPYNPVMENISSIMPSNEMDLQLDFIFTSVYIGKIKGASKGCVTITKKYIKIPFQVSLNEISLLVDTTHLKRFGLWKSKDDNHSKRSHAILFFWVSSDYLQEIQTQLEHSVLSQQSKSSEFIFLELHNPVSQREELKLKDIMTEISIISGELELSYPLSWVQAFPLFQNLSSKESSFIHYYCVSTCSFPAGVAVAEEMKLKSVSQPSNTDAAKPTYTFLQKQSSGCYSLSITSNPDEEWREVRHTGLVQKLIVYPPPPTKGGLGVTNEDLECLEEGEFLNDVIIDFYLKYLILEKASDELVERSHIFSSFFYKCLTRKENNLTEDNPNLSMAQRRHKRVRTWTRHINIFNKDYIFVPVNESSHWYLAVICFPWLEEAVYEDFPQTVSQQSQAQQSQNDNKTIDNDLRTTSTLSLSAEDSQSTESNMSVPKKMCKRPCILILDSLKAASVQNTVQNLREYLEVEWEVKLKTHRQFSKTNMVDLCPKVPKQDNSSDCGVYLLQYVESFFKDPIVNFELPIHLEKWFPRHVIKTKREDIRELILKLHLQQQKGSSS
Description: SENP7 protease inhibitors, SAR follow-up, biochemical, luminescence (AID 504497).

The text below walks through data of ChEMBL document CHEMBL1201862, “PubChem BioAssay data set” (2004).

The structures appear in SMILES notation. Active and inactive are the calls of the source.

With `O=C1N=C(NS(=O)(=O)Cc2ccccc2)S/C1=C1\C(=O)Nc2ccccc21`, at Leucine aminopeptidase, the IC50 is 26.7 µM (active). In the case of `CC(=O)NC1C(=O)N(CCN2CCOCC2)c2ccc(F)cc21` (stereo not drawn), the IC50 on Hexokinase-1 was > 80 µM (inactive). On to `O=C(CCc1ccccc1)NNc1cc(N2CCCCC2)nc(N2CCCCC2)n1`, for which the IC50 in test [1] is 57.9 µM (active).

As usually defined, the IC50 is the concentration at which inhibition is half-maximal.
